These results are taken from patent publication US9758559B2, “Short peptides derived from VDAC1, compositions and methods of use thereof” (B.G. NEGEV TECHNOLOGIES AND APPLICATIONS LTD., AT …, priority 2013, dated 2017).

As usually defined, the IC50 is the point on the concentration scale where inhibition reaches its midpoint.

The test system of one test is MEC-1 cells. It is filed as cell-based. The conditions noted are these: 90 min incubation, serum-free medium, PI staining, FACS, read-out: IC50, induction of cell death, MEC-1. The protocol: MEC-1, MO1043 and T-Rex-293 cells were grown in DMEM supplemented with 10% FCS, 2 mM L-glutamine, 1000 U/ml penicillin and 1 mg/ml streptomycin, U-87, C6 and PC3 were maintained in RPMI 1640 supplemented with 10-20% FCS, 2 mM L-glutamine, 1000 U/ml penicillin and 1 mg/ml streptomycin. All cells were maintained in a humidified atmosphere with 5% CO2 at 37° C.
PBMCs (4×10^5 or 8×10^5 cells/sample) were incubated in 200 μl serum-free medium with the examined peptide for 90 min at room temperature and centrifuged (500×g, 5 min) Cell death was analyzed by PI staining and flow cytometer (Beckton-Dickinson) and BD Cell Quest Pro software. Apoptotic cell death was also analyzed by PI and annexin V-FITC staining (Zaid H et al. 2005. 12:751-760), and by acridine orange and ethidium bromide staining and confocal microscopy (Olympus 1×81).
To optimize the VDAC1 N-terminal derived peptides with respect to stability, length and specific targeting to cancer cells, several versions of these peptides were designed and tested for their efficacy in inducing the death of CLL-derived lymphocytes and MEC-1 cells (Table 3). Cells were incubated for 90 min with increasing concentrations of the indicated peptide and death was analyzed by PI stating and FACS as described hereinabove. As is clearly shown in FIG. 1 (and Table 3), deleting 6 residues from the C-terminus of the peptide, including the GXXXG motif, yielded a non-active peptide (peptide Δ(21-26) N-Ter-Antp, SEQ ID NO:22).

In test [1] the test system is Human primary glioblastoma cells (U-87). Briefly: Cell death of U-87 cells, PI staining and flow cytometry. It is filed as cell-based. The conditions noted are these: 6 h, serum-free medium, PI-positive cells; read-out: IC50, cell death, U87. The protocol: (§1) The efficacy of the peptide comprising amino acids […] of the N-terminal domain of VDAC1, synthesized with D-amino acids (all D-stereomeric peptide) conjugated to the Antp sequence also synthesized from D-amino acids as a CPP (D-Δ(1-14) N-Ter-Antp, SEQ ID NO:9) was further examined for its activity of inducing cell death with brain tumor derived cell lines. Human primary glioblastoma cells (U-87), human neuroblastoma cells (SH-SY5Y) and rat glioblastoma cells (C6) were incubated (4×10^5 cells) for 6 h in a serum-free-medium containing different concentrations of D-Δ1-14N-Ter-Antp (SEQ ID NO:9). The previously disclosed LP4 peptide conjugated to Tf (Tf-D-LP4 peptide, SEQ ID NO:20) was used as a reference of activity. At the end of the incubation time the cells were stained with PI and the level of cell death, reflected by the percentage of PI-positive cells, was determined by flow cytometry.
Background: In flow cytometry, cells or beads pass a laser one at a time.

In test [2] the test system is human neuroblastoma cells (SH-SY5Y). The test is described as follows: Cell death of SH-SY5Y cells, PI staining and flow cytometry. It is filed as cell-based. The conditions noted are these: 6 h, serum-free medium, PI-positive cells. The protocol: as §1
The subject of a further test is CLL-derived lymphocytes. Briefly: Cell death of CLL-derived lymphocytes (PBMCs of CLL patients), PI staining and FACS. It is filed as cell-based, human. The conditions noted are these: 90 min incubation, PI staining, FACS, read-out: IC50, induction of cell death, CLL. On the procedure: PBMCs were isolated from venous blood of the CLL patients by Ficoll-Paque PLUS (GE Healthcare, Israel) density gradient centrifugation, as follows. Venous blood (10-20 ml) was drawn from CLL patients with satisfying diagnostic criteria for CLL or from normal adult donors. Blood was collected into heparin tubes and was diluted 1:1 with balance solution composed of two stock solutions, A (1% D-glucose, 50 mM CaCl2, 0.98 mM MgCl2, 5.4 mM KCl and 0.145 M Tris-HCl, pH 7.6) and B (0.14 M NaCl) in a 1:9 ratio. The resulting mix was carefully layered on Ficoll-Paque Plus (10 ml of diluted blood:15 ml Ficoll) in 50 ml conical tubes. The tubes were centrifuged at 400×g (with minimal acceleration and deceleration) and 18-20° C. for 40 min. […] Cells were counted by a Countess Automated Cell Counter (Invitrogen).
PBMCs (4×10^5 or 8×10^5 cells/sample) were incubated in 200 μl serum-free medium with the examined peptide for 90 min at room temperature and centrifuged (500×g, 5 min) Cell death was analyzed by PI staining and flow cytometer (Beckton-Dickinson) and BD Cell Quest Pro software. Apoptotic cell death was also analyzed by PI and annexin V-FITC staining (Zaid H et al. 2005. 12:751-760), and by acridine orange and ethidium bromide staining and confocal microscopy (Olympus 1×81). […]

The next test deals with T-Rex-293 cells. It is filed as cell-based. The source says: (§2) Data represent mean values, n=3.
(§3) It was previously disclosed that peptide Antp-LP4 (SEQ ID NO:23) derived from another part of VDAC1, selectively induce cell death of cancerous cells co-expressing the cell surface markers CD19 and CD5 (U.S. Pat. No. 8,648,045) as well as other cancer cells as HeLa.

Test [3] relates to human prostate cancer cell lines (PC3). It is filed as cell-based.
Excerpt: as §2, §3

The subject of test [4] is rat glioblastoma cells (C6). The test is described as follows: Cell death of C6 cells, PI staining and flow cytometry. It is filed as cell-based. The conditions noted are these: 6 h, serum-free medium, PI-positive cells. The protocol:
as §1

Test [5] deals with glioblastoma xenografts (U87 cells). The test is described as follows: Tumor growth of U87 glioblastoma xenografts in nude mice. It is filed as in vivo. The conditions noted are these: xenografts injected with 10 μl of 20 or 40 μM solutions. The protocol:
U87 cells were inoculated into male nude mice (7×10^6 cells/mouse). Tumor volumes were monitored (using a digital caliper) and on day 11, the mice were divided into […] (5 mice per group), with each mouse containing a tumor with a volume between 100-200 mm^3 and similar average volumes measured per group. The four mice groups were subjected to the following treatments: Xenografts were injected with 0.26% DMSO (control), with D-Δ1-14N-Ter-Antp (10 μl of 20 or 40 μM solutions) or with the previously disclosed Tf-LP4 peptide (10 μl of a 20 μM solution).

For another test, the system named is glioblastoma U-87 cells. The test is described as follows: Mitochondrial membrane potential analysis (TMRM, FACS). It is filed as cell-based, human. The conditions noted are these: 3 h incubation. On the procedure:
U-87 cells were incubated with the indicated concentrations of D-Δ1-14N-Ter-Antp (SEQ ID NO:9), washed with PBS, incubated with or without the potentiometric fluorescent dye TMRM (200 nM, 20 min), washed with PBS and subjected to FACS analysis. FCCP, allowing for Δψ dissipation, served as a control.
VDAC1 is a key component in regulating the energy production of the cell. It is known that cancer cells are characterized by elevated energy demand. The effects of D-Δ(1-14) N-Ter-Antp on the mitochondrial inner membrane polarization and cellular ATP level were examined using glioblastoma U-87 cells. U-87 cells were incubated for 3 h with the various concentrations of D-Δ1-14N-Ter-Antp or with FCCP (10 μM, control for depolarization) for 1 h.

Where a SMILES comes first, the peptide text is derived from it. [ ]: non-standard residue; d: D form.

Regarding `CC[C@@H](C)[C@@H](NC(=O)[C@@H](CCCCN)NC(=O)[C@H](NC(=O)[C@@H](CCC(N)=O)NC(=O)[C@@H](CCCNC(=N)N)NC(=O)[C@@H](CC(C)C)NC(=O)CNC(=O)[C@@H](Cc1ccccc1)NC(=O)CNC(=O)[C@@H](Cc1ccc(O)cc1)NC(=O)CNC(=O)[C@@H](CCCCN)NC(=O)[C@H](NC(=O)[C@@H](Cc1ccccc1)NC(=O)[C@H](NC(=O)[C@@H](CC(=O)O)NC(=O)[C@H](N)CCCNC(=N)N)C(C)C)[C@H](C)O)[C@H](C)CC)C(=O)N[C@H](Cc1c[nH]c2ccccc12)C(=O)N[C@H](Cc1ccccc1)C(=O)N[C@H](CCC(N)=O)C(=O)N[C@H](CC(N)=O)C(=O)N[C@H](CCCNC(=N)N)C(=O)N[C@H](CCCNC(=N)N)C(=O)N[C@H](CCSC)C(=O)N[C@H](CCCCN)C(=O)N[C@H](Cc1c[nH]c2ccccc12)C(=O)N[C@H](CCCCN)C(=O)N[C@H](CCCCN)C(=O)O` [D-Δ(1-14) N-Ter-Antp, ALL D-RDVFTKGYGFGL RQIKIWFQNRRMKWKK] (H-[dR][dD][dV][dF][dT][dK]G[dY]G[dF]G[dL][dR][dQ][dI][dK][dI][dW][dF][dQ][dN][dR][dR][dM][dK][dW][dK][dK]-OH), the concentration for half-maximal inhibition (IC50) in the test on MEC-1 cells is 2.1 ± 0.3 µM; in [1] it was 3.75 µM; in [2] it was 2.05 µM; in the test on CLL-derived lymphocytes it was 1.3 ± 0.1 µM; in the test with T-Rex-293 cells (non-malignant cells TRex-293, read-out: IC50, cell death, non-malignant cells TRex-293) it was over 14.3 µM; in [3] (prostate cell line PC3, read-out: IC50, cancer cell death, PC3) it was 1.51 µM. Besides, in [4], the IC50 amounted to 5.3 µM. The “induction of cell death, in words” value in the test on T-Rex-293 cells (T-Rex-293 control cells) is reported as “some induction of cell death”; in test [3] (PC3 cells) it was “dramatic cell death”. The tumor size result in [5] was “significantly reduced the tumor size”. The “mitochondrial inner membrane polarization” value in the test with glioblastoma U-87 cells is recorded as “induced mitochondrial inner membrane depolarization”.
